In ChEMBL document CHEMBL6103647, “Analgesic Grayanane-Derived Diterpenoids from the Flowers of Rhododendron molle” (J Nat Prod, 2025):

Assays:
Mus musculus [1] = experiment: Analgesic activity against acetic acid-induced Kunming writhing mouse model assessed as inhibition of writhing at 5 mg/kg, ip pre-incubated for 15 mins followed by acetic acid addition and measured after 15 mins relative to control; format: functional; details: 0.25 h
Mus musculus [2] = experiment: Analgesic activity against acetic acid-induced Kunming writhing mouse model assessed as inhibition of writhing at 1 mg/kg, ip pre-incubated for 15 mins followed by acetic acid addition and measured after 15 mins relative to control; format: functional; details: 0.25 h
Mus musculus [3] = experiment: Analgesic activity against acetic acid-induced Kunming writhing mouse model assessed as inhibition of writhing at 0.2 mg/kg, ip pre-incubated for 15 mins followed by acetic acid addition and measured after 15 mins relative to control; format: functional; details: 0.25 h
[4] = Toxicity in Kunming mouse at 5 mg/kg, ip administered for 15 mins; format: organism-based; details: in vivo, 0.25 h
Mus musculus [5] = experiment: Analgesic activity against acetic acid-induced ip dosed Kunming writhing mouse model assessed as effective dose pre-incubated for 15 mins followed by acetic acid addition and measured after 15 mins; format: functional; details: 0.25 h
[6] = Therapeutic index, ratio of LD50 for toxicity in ip dosed Kunming mouse assessed as lethal dose to ED50 for analgesic activity against acetic acid-induced Kunming writhing mouse model assessed as effective dose; format: organism-based; details: in vivo, read-out: TI
[7] = Toxicity in ip dosed Kunming mouse assessed as lethal dose; format: organism-based; details: in vivo

## CC1(C)[C@@H](O)[C@H](OC(=O)c2ccco2)[C@H]2[C@](C)(O)[C@@H]3CC[C@@H]4[C@@H](O)[C@@]3(C[C@@H](O)[C@@]21O)C[C@@]4(C)O
Mus musculus [1]
  inhibition in vivo at 5 mg/kg: 74.1%
Mus musculus [2]
  inhibition in vivo at 1 mg/kg: 50%
Mus musculus [3]
  inhibition in vivo at 0.2 mg/kg: 71.5%

## CC1(C)[C@@H](O)[C@H](OC(=O)c2cccnc2)[C@H]2[C@](C)(O)[C@@H]3CC[C@@H]4[C@@H](O)[C@@]3(C[C@@H](O)[C@@]21O)C[C@@]4(C)O
Mus musculus [2]
  inhibition in vivo at 1 mg/kg: 50%
[4]
  Activity: Toxic

## CC1(C)[C@@H](O)[C@H](O)[C@H]2[C@](C)(O)[C@@H]3CC[C@@H]4[C@@H](O)[C@@]3(C[C@@H](O)[C@@]21O)C[C@@]4(C)O
Mus musculus [5]
  ED50: 0.073 mg/kg
[6]
  selectivity ratio: 24.5

## CC1=C2CC[C@@H]3[C@@H](O)[C@@]2(C[C@@H](O)[C@@]2(O)[C@H]1[C@@H](Cl)[C@H](O)C2(C)C)C[C@@]3(C)O
Mus musculus [2]
  inhibition in vivo at 1 mg/kg: 50%

## CN1CC[C@]23c4c5ccc(O)c4O[C@H]2[C@@H](O)C=C[C@H]3[C@H]1C5 [MORPHINE]
Mus musculus [3]
  inhibition in vivo at 0.2 mg/kg: 39.4%

## CC1=C2CC[C@@H]3[C@@H](O)[C@@]2(C[C@H]2O[C@@H](c4ccc(O)cc4)O[C@@]24C1[C@@H](O)[C@H](O)C4(C)C)C[C@@]3(C)O (stereo not given in full)
Mus musculus [1]
  inhibition in vivo at 5 mg/kg: 74.1%
Mus musculus [2]
  inhibition in vivo at 1 mg/kg: 50%

## CC(=O)O[C@@H]1C[C@]23C[C@@](C)(O)[C@@H]4CC[C@H]2[C@@](C)(O)[C@@H]2[C@@H](O[C@@H]5[C@H]6CC[C@H]7[C@@](C)(O)[C@@H]8[C@@H](O[C@H]43)[C@H](O)C(C)(C)[C@@]8(O)[C@H](OC(C)=O)C[C@@]57C[C@@]6(C)O)[C@H](O)C(C)(C)[C@@]12O
Mus musculus [1]
  inhibition in vivo at 5 mg/kg: 74.1%

## CC1(C)[C@@H](O)[C@H](OC(=O)[C@@]2(O)C[C@@H](O)[C@H](O)[C@H](OC(=O)/C=C/c3ccc(O)cc3)C2)[C@H]2[C@](C)(O)[C@@H]3CC[C@@H]4[C@@H](O)[C@@]3(C[C@@H](O)[C@@]21O)C[C@@]4(C)O
Mus musculus [1]
  inhibition in vivo at 5 mg/kg: 74.1%
Mus musculus [2]
  inhibition in vivo at 1 mg/kg: 50%
Mus musculus [3]
  inhibition in vivo at 0.2 mg/kg: 77.2%
Mus musculus [5]
  ED50: 0.074 mg/kg
[7]
  LD50: 131 mg/kg
[6]
  selectivity ratio: 1770

## CC1(C)[C@@H](O)[C@@H]2O[C@@H]3[C@H]4CC[C@H]5[C@@](C)(O)[C@@H]6[C@@H](O[C@@H]7[C@H]8CC[C@H]9[C@@](C)(O)[C@H]2[C@]1(O)[C@H](O)C[C@@]79C[C@@]8(C)O)[C@H](O)C(C)(C)[C@@]6(O)[C@H](O)C[C@@]35C[C@@]4(C)O
Mus musculus [1]
  inhibition in vivo at 5 mg/kg: 74.1%
Mus musculus [2]
  inhibition in vivo at 1 mg/kg: 50%
